Like-named read-outs stand apart in the source and are kept apart here.
Key:
[1] = test system: men exhibiting androgenetic alopecia of stage III to V according to the Hamilton classification; conditions: for No. of hairs/per cm^2 (DE): mean ± standard deviation
Description: Pyridine-2,4-dicarboxylic acid was tested in the form of the Na double salt formulated at a concentration of 5% in an aqueous/alcoholic lotion.
The evaluation of the effectiveness of the treatments was carried out by determining the total pilar density of hairs per cm^2 (DE) using the phototrichogram technique. This examination was carried out before treatment (M0) and after 3 months of treatment (M3).

[2] = test system: men exhibiting androgenetic alopecia of stage III to V according to the Hamilton classification; test: 1st study: in vivo activity, total pilar density of hairs per cm^2 (DE) by phototrichogram; set-up: species or system human; conditions: for No. of hairs/per cm^2 (DE): mean ± standard deviation
Source text: It was studied at a concentration of 2%, formulated in a ternary lotion based on propylene glycol, ethanol and water.

proline hydroxylase = conditions: K. Majamaa et al., Eur. J. Biochem., 138, 1984, 239-245; cited from earlier work

Row | Structure (SMILES) | hair loss (decrease in total density) compared with placebo areas, times smaller ([1]; 5% lotion, 3 months, versus placebo areas) | No. of hairs/per cm^2 (DE) ([1]; M0, before treatment, scalp area to receive 5% aqueous/alcoholic lotion, 22 men) | No. of hairs/per cm^2 (DE) ([1]; M3, after 3 months, 5% aqueous/alcoholic lotion, 30 μl once daily, 5 days per week, topical on scalp) | DE variation (%) ([1]; mean of the variation at M3 with respect to M0, 5% lotion, 30 μl once daily, 5 days per week, 3 months) | change of total density of treated areas (in words) ([2]; 2% lotion, 3 months, placebo areas do not change) | No. of hairs/per cm^2 (DE) ([2]; M0, before treatment, scalp area to receive 2% lotion (propylene glycol, ethanol, water), 25 men) | No. of hairs/per cm^2 (DE) ([2]; M3, after 3 months, 2% lotion, 30 μl once daily, 5 days per week, topical on scalp) | DE variation (%) ([2]; M3 with respect to M0, 2% lotion, 30 μl once daily, 5 days per week, 3 months) | inhibition of proline hydroxylase (in words) (proline hydroxylase)
1 | O=C([O-])c1ccnc(C(=O)[O-])c1.[Na+].[Na+] [Na disalt of Pyridine-2,4-dicarboxylic acid] | 4 times | 249 ± 50 hairs/per cm^2 | 246 ± 50 hairs/per cm^2 | −0.97% |  |  |  |  | 
2 | O=C(O)c1ccnc(C(=O)O)c1 [Pyridine-2,4-dicarboxylic acid] |  |  |  |  | increase in the total density | 213 ± 45 hairs/per cm^2 | 224 ± 53 hairs/per cm^2 | 4.4% | very weak inhibitors
3 | O=C(O)c1ccc(C(=O)O)nc1 [pyridine-2,5-dicarboxylic acids, pyridine-2,5-dicarboxylic acid] |  |  |  |  |  |  |  |  | very weak inhibitors
